Laboratory results taken from patent publication US20230405026A1, “A Method of Treating Depression by Immune Modulation” (Mynd Life Sciences Inc., priority 2020, published 2023).

Experiments:
[1] = system: ABCF1; test: Escitalopram induction of ABCF1 in RAW macrophages, real time RT-PCR; assay type: cell-based
Method: (§1) FIG. 1—illustrates that Escitalopram induces ABCF1 in a Macrophage cell line: RAW macrophages were plated at 1×10^5 cells/well and cultured for 2 days. The cells were incubated with 0.3 mM Escitalopram for 1 hour, and then harvested for total RNA, which was extracted for real time RT-PCR specific for ABCF1 and IL-4. CT values were normalized with CT value for the housekeeping gene from the DMSO control. The difference in the expression after drug treatment is consistent with polarization towards an M2-like phenotype (data were consistent in 3 separate experiments).
(§2) Additionally, noradrenergic or serotonin-norepinephrine reuptake inhibitors used to treat major depressive disorder have anti-inflammatory properties in vitro^55. […] Mechanistically, antidepressants likely mediate this through a reduction in pro-inflammatory cytokines IL-1b, TNFα, and IL-6 with a reciprocal increase in anti-inflammatory cytokines including […]. Studies have also shown that single nucleotide polymorphisms in IL-6 and IL-11, and mRNA levels of TNFα, are predictive of clinical response to the SSRI, escitalopram^63,64. Also, escitalopram modulates mRNA levels of cytokines in mouse brain^65 and decreases cytokine mRNA levels in the circulating immune cells of depression patients^60. […]

[2] = system: IL-4; test: Escitalopram induction of IL-4 in RAW macrophages, real time RT-PCR; assay type: cell-based; details: RAW macrophage cell line, 0.3 mM Escitalopram, 1 hour, normalized to housekeeping gene, vs DMSO control (FIG. 1)
Method: as §1, §2

[3] = system: ABCF1; details: peripheral blood mononuclear cells of patients responding to escitalopram treatment; cited from earlier work
[4] = system: ABCF1; test: Effect of psylocibin, psylocin and analogs on ABCF1 transcription in RAW264.7, qPCR; assay type: cell-based; details: RAW264.7, 10 nM, 100 nM, 500 nM, normalized against GAPDH (FIG. 2)
Method: FIG. 2—illustrates the effect of psylocibin, psylocin and their analogs on ABCF1 transcription in a macrophage cell line. Briefly, the Macrophage cell line RAW264.7 (ATCC) were grown to 80% confluency in growth media (DMEM+ 10% FBS+ glutamine). Dilutions of psylocibin, psylocin and their analogs were made at desired final concentrations for a Dose response experiment. The concentrations' used for this experiment are: 10 nM, 100 nM, 500 nM for Psilocin, Psylocibin, 4-Acetoxy-N, N-dimthyltryptamine, O-Acetyl Psilocin Fumerate, and 4-acetoxyindole. The cells were incubated for 2 hours and then harvested for total RNA, which was extracted for real time RT-PCR specific for ABCF1. Untreated cells were used as negative control and Escitalopram at 0.3 mM was used as a positive control to activate ABCF1 expression for all the experiments. ES=escitalopram; PSYB=Psylocibin; PSIC=Psilocin; DMT=4-Acetoxy-N, N-dimthyltryptamine; APF=O-Acetyl Psilocin Fumerate, and AOI=4-acetoxyindole.
Preparation of Cells: • 1. Macrophage cell line RAW264.7 (ATCC) were grown to 80% confluency in growth media (DMEM+10% FBS+glutamine). • 2. Dilutions of the drugs were made at desired final concentrations for a Dose response experiment. […]
• 1. […] Normalized against the expression level of GAPDH, the fold change expression level of ABCF1 was calculated and tabulated for all treatment conditions.

SMILES | induction of ABCF1 expression ([1]; RAW macrophage cell line, 0.3 mM Escitalopram, 1 hour, normalized to housekeeping gene, vs DMSO control (FIG. 1)) | ABCF1 induction in a macrophage cell line (in words) ([1]; RAW macrophages, 0.3 mM, 1 hour (FIG. 1 legend)) | induction of IL-4 expression [2] | transcription of ABCF1 in PBMCs [3] | ABCF1 transcription (in words) [4]
CN(C)CCC[C@@]1(c2ccc(F)cc2)OCc2cc(C#N)ccc21 [Escitalopram] | approximately 20 fold | induces ABCF1 | approximately 5 fold | increased the transcription | 
CN(C)CCc1c[nH]c2cccc(O)c12 [psylocin, 4-hydroxy-N,N-dimethyltryptamine] |  |  |  |  | upregulate ABCF1 transcription
